{"source": "patent US5043332A", "about": "“Novel 11β-substituted -19-nor-steriods” (priority 1981, dated 1991)", "key": {"uterine endometrium [1]": {"test_system": "uterine endometrium", "assay": "Progestomimetic activity, oral, change in uterine endometrium (McPhail)", "assay_type": "in vivo, immature female rabbits", "method": "(§1) IV. Progestomimetic and Anti-progestomimetic Activity\n(§2) a) Groups of immature female rabbits weighing about 1 kg had administered to them subcutaneously from day 1 to day 5, 5 μg of estradiol. The product tested was afterward administered orally from day 8 to day 11 in a volume of 0.5 cm^3 of water containing 0.5% of carboxymethyl cellulose and 0.2% of Tween. On day 12, the rabbits were sacrificed, their uteruses were retained and fixed in Bouin's solution and histologically studied.\n(§3) The changes in the uterine endometrium were noted according to the method of McPhail."}, "uterine endometrium [2]": {"test_system": "uterine endometrium", "assay": "Anti-progestomimetic activity versus progesterone, oral, change in uterine endometrium (McPhail)", "assay_type": "in vivo, immature female rabbits", "method": "as §1, §2, §3"}}}
{"smiles": "CC#C[C@]1(O)CC[C@H]2[C@@H]3CCC4=CC(=O)CCC4=C3[C@@H](c3ccc(N(C)C)cc3)C[C@@]21C", "note": "[Example 19, 11β-[4-(N,N-dimethylamino)-phenyl]-17α-(prop-1-ynyl)-Δ^4,9-estradiene-17β-ol-3-one]", "values": [{"measurement": "CHANGE IN THE ENDOMETRIUM", "setting": "uterine endometrium [1]; 0.3 mg/kg by mouth", "result": 0, "unit": "McPHAIL UNTS"}, {"measurement": "CHANGE IN THE ENDOMETRIUM", "setting": "uterine endometrium [1]; 1.0 mg/kg by mouth", "result": 0, "unit": "McPHAIL UNTS"}, {"measurement": "CHANGE IN THE ENDOMETRIUM", "setting": "uterine endometrium [1]; 3.0 mg/kg by mouth", "result": 0, "unit": "McPHAIL UNTS"}, {"measurement": "CHANGE IN THE ENDOMETRIUM", "setting": "uterine endometrium [1]; 10.0 mg/kg by mouth", "result": 0, "unit": "McPHAIL UNTS"}, {"measurement": "CHANGE IN THE ENDOMETRIUM", "setting": "uterine endometrium [1]; 50 mg/kg by mouth", "result": 0, "unit": "McPHAIL UNTS"}, {"measurement": "CHANGE IN THE ENDOMETRIUM", "setting": "uterine endometrium [2]; progesterone 0.2 mg subcutaneously + 0.3 mg/kg by mouth", "result": 2.8, "unit": "McPHAIL UNTS"}, {"measurement": "CHANGE IN THE ENDOMETRIUM", "setting": "uterine endometrium [2]; progesterone 0.2 mg subcutaneously + 1 mg/kg by mouth", "result": 2.1, "unit": "McPHAIL UNTS"}, {"measurement": "CHANGE IN THE ENDOMETRIUM", "setting": "uterine endometrium [2]; progesterone 0.2 mg subcutaneously + 3 mg/kg by mouth", "result": 1.4, "unit": "McPHAIL UNTS"}, {"measurement": "CHANGE IN THE ENDOMETRIUM", "setting": "uterine endometrium [2]; progesterone 0.2 mg subcutaneously + 10 mg/kg by mouth", "result": 0.6, "unit": "McPHAIL UNTS"}, {"measurement": "CHANGE IN THE ENDOMETRIUM", "setting": "uterine endometrium [2]; progesterone 0.2 mg subcutaneously + 20 mg/kg by mouth", "result": 0, "unit": "McPHAIL UNTS"}]}
